The test system of data set [1] is Klebsiella pneumoniae. Briefly: Antibacterial activity against Klebsiella pneumoniae ATCC 700603 assessed as inhibition of bacterial growth incubated for 18 hrs by two fold serial dilution assay. In kind it is functional.
A further data set deals with Lipopolysaccharide (LPS). The experiment in a line: Displacement of BODIPY-TR-cadaverine from Escherichia coli O128:B12 LPS assessed as effective dose incubated for 1 hr by fluorescence microplate reader assay.
Data set [2] can be described thus: Hemolytic activity in human blood assessed as hemolysis incubated for 6 hrs by microplate reader analysis. In kind it is toxicity, tissue-based.
In data set [3] the test system is Escherichia coli. Briefly: Antibacterial activity against Escherichia coli ATCC 25922 assessed as inhibition of bacterial growth incubated for 18 hrs by two fold serial dilution assay. The format is functional.
Data set [4] concerns Acinetobacter baumannii. The experiment in a line: Antibacterial activity against Acinetobacter baumannii ATCC 17978 assessed as inhibition of bacterial growth incubated for 18 hrs by two fold serial dilution assay. The format is functional.
Data set [5] in a line: Hydrophobicity of the compound assessed as retention time by reversed-phase HPLC analysis. The format is physicochemical.
For data set [6], the system named is Acinetobacter baumannii. The experiment in a line: Potentiation of novobiocin induced antibacterial activity against Acinetobacter baumannii ATCC 17978 assessed as decrease in bacterial growth at 0.4 uM incubated for 18 hrs in presence of novobiocin by two fold serial dilution assay. In kind it is functional, organism-based.
The subject of data set [7] is Escherichia coli. The experiment in a line: Potentiation of erythromycin induced antibacterial activity against Escherichia coli ATCC 25922 assessed as decrease in bacterial growth at 0.4 uM incubated for 18 hrs in presence of erythromycin by two fold serial dilution assay. In kind it is functional, organism-based.
The subject of data set [8] is Escherichia coli. The experiment in a line: Potentiation of fusidic acid induced antibacterial activity against Escherichia coli ATCC 25922 assessed as decrease in bacterial growth at 0.4 uM incubated for 18 hrs in presence of fusidic acid by two fold serial dilution assay. In kind it is functional, organism-based.
Data set [9] concerns Acinetobacter baumannii. Briefly: Potentiation of fusidic acid induced antibacterial activity against Acinetobacter baumannii ATCC 17978 assessed as decrease in bacterial growth at 0.4 uM incubated for 18 hrs in presence of fusidic acid by two fold serial dilution assay. The format is functional, organism-based.
Data set [10] has as its system Klebsiella pneumoniae. The experiment in a line: Potentiation of novobiocin induced antibacterial activity against Klebsiella pneumoniae ATCC 700603 assessed as decrease in bacterial growth at 0.4 uM incubated for 18 hrs in presence of novobiocin by two fold serial dilution assay. The format is functional, organism-based.
The subject of data set [11] is Klebsiella pneumoniae. The experiment in a line: Potentiation of erythromycin induced antibacterial activity against Klebsiella pneumoniae ATCC 700603 assessed as decrease in bacterial growth at 0.4 uM incubated for 18 hrs in presence of erythromycin by two fold serial dilution assay. In kind it is functional, organism-based.
Data set [12] relates to Klebsiella pneumoniae. The experiment in a line: Potentiation of fusidic acid induced antibacterial activity against Klebsiella pneumoniae ATCC 700603 assessed as decrease in bacterial growth at 0.4 uM incubated for 18 hrs in presence of fusidic acid by two fold serial dilution assay. In kind it is functional, organism-based.
The test system of data set [13] is Acinetobacter baumannii. The experiment in a line: Potentiation of erythromycin induced antibacterial activity against Acinetobacter baumannii ATCC 17978 assessed as decrease in bacterial growth at 0.4 uM incubated for 18 hrs in presence of erythromycin by two fold serial dilution assay. The format is functional, organism-based.
Data set [14] deals with Escherichia coli. Briefly: Potentiation of novobiocin induced antibacterial activity against Escherichia coli ATCC 25922 assessed as decrease in bacterial growth at 0.4 uM incubated for 18 hrs in presence of novobiocin by two fold serial dilution assay. The format is functional, organism-based.

Active and inactive are the calls of the source. Residues, ends and D or L forms follow the SMILES beside them. Bounds are passed on as bounds.

By MIC is commonly meant the smallest concentration in the dilution series that meets the test's criterion for growth inhibition.

Take `CCCCCCCC(=O)N[C@@H](CCCCN)C(=O)N[C@@H](CCCCN)C(=O)N[C@@H](C)C(=O)N[C@@H](C)C(=O)N[C@@H](CCCCN)C(=O)N[C@@H](C)C(=O)N[C@@H](C)C(=O)N[C@@H](CCCCN)C(=O)N[C@@H](CCCCN)C(=O)N1CCC[C@H]1C(=O)N[C@@H](C)C(=O)N[C@@H](CCCCN)C(=O)N[C@@H](C)C(=O)N[C@@H](C)C(=O)N[C@@H](CCCCN)C(N)=O` (HELM PEPTIDE1{[CCCCCCCC(=O)[*:2]].K.K.A.A.K.A.A.K.K.P.A.K.A.A.K.[am]}$$$$V2.0): the MIC in the data set with Klebsiella pneumoniae [1], with Escherichia coli [3] and with Acinetobacter baumannii [4] was above 80 µM in each case. Moreover, the ED50 result with Lipopolysaccharide (LPS) was “inactive”. Further, in data set [2], the MHC10 was above 160 µM. In data set [5], the Retention_time came to 13.7 min.
Regarding Ac-KALLKLLKKPLKLLK-NH2, the minimal inhibitory concentration (MIC) is above 80 µM in the data set with Klebsiella pneumoniae [1], above 80 µM in the data set on Escherichia coli [3] and 20 µM with Acinetobacter baumannii [4]. Further, the result with Acinetobacter baumannii [6], in the data set on Escherichia coli [7], in the data set on Escherichia coli [8], in the data set with Acinetobacter baumannii [9], in the data set with Klebsiella pneumoniae [10] and with Klebsiella pneumoniae [11] was Active. The result with Klebsiella pneumoniae [12], in the data set on Acinetobacter baumannii [13] and in the data set with Escherichia coli [14] was Active. The MHC10 in data set [2] was above 160 µM. The Retention_time in data set [5] came to 19.4 min.
Consider Ac-KKALKLLKKPLKLLK-NH2, for which the minimum inhibitory concentration (MIC) in the data set on Klebsiella pneumoniae [1], in the data set with Escherichia coli [3] and with Acinetobacter baumannii [4] was above 80 µM in each case. For the same compound, the outcome in the data set on Acinetobacter baumannii [6], with Escherichia coli [7], with Escherichia coli [8], in the data set on Acinetobacter baumannii [9], with Klebsiella pneumoniae [10] and in the data set on Klebsiella pneumoniae [11] was Active. Moreover, the outcome with Klebsiella pneumoniae [12], in the data set on Acinetobacter baumannii [13] and in the data set on Escherichia coli [14] was Active. In addition, the MHC10 in data set [2] was above 160 µM. The Retention_time in data set [5] was determined as 16.7 min.
Turning to Ac-KKLAKLLKKPLKLLK-NH2, the values for the minimal inhibitory concentration (MIC) in the data set with Klebsiella pneumoniae [1], in the data set on Escherichia coli [3] and with Acinetobacter baumannii [4] were above 80 µM, above 80 µM and 80 µM, respectively. Moreover, the result in the data set with Acinetobacter baumannii [6], with Escherichia coli [7], with Escherichia coli [8], in the data set on Acinetobacter baumannii [9], with Klebsiella pneumoniae [10] and in the data set with Klebsiella pneumoniae [11] was Active. The outcome in the data set on Klebsiella pneumoniae [12], in the data set with Acinetobacter baumannii [13] and in the data set on Escherichia coli [14] was Active. Besides, the MHC10 in data set [2] was above 160 µM. The Retention_time in data set [5] stood at 17.1 min.
Take Ac-KKLLALLKKPLKLLK-NH2: the values for the MIC in the data set on Klebsiella pneumoniae [1], in the data set with Escherichia coli [3] and in the data set with Acinetobacter baumannii [4] were 80 µM, 80 µM and 20 µM, respectively. The result in the data set with Acinetobacter baumannii [6], in the data set on Escherichia coli [7], with Escherichia coli [8], in the data set on Acinetobacter baumannii [9], in the data set on Klebsiella pneumoniae [10] and with Klebsiella pneumoniae [11] was Active. For the same compound, the result in the data set on Klebsiella pneumoniae [12], with Acinetobacter baumannii [13] and in the data set with Escherichia coli [14] was Active. Besides, the MHC10 in data set [2] was above 160 µM. In addition, the Retention_time in [5] is given as 19.4 min.
For Ac-KKLLKLAKKPLKLLK-NH2, the MIC with Klebsiella pneumoniae [1], in the data set with Escherichia coli [3] and in the data set on Acinetobacter baumannii [4] was above 80 µM in each case. For the same compound, the result in the data set on Acinetobacter baumannii [6], in the data set with Escherichia coli [7], in the data set on Escherichia coli [8], in the data set on Acinetobacter baumannii [9], with Klebsiella pneumoniae [10] and in the data set with Klebsiella pneumoniae [11] was Active. For the same compound, the outcome in the data set on Klebsiella pneumoniae [12], with Acinetobacter baumannii [13] and in the data set with Escherichia coli [14] was Active. Further, the MHC10 in [2] is above 160 µM. In addition, the Retention_time in data set [5] was 16.8 min.
With Ac-KKLLKLLAKPLKLLK-NH2, the MIC is above 80 µM in the data set with Klebsiella pneumoniae [1], above 80 µM in the data set with Escherichia coli [3] and 40 µM in the data set with Acinetobacter baumannii [4]. Besides, the result with Acinetobacter baumannii [6], with Escherichia coli [7], with Escherichia coli [8], in the data set on Acinetobacter baumannii [9], in the data set with Klebsiella pneumoniae [10] and in the data set on Klebsiella pneumoniae [11] was Active. Moreover, the outcome in the data set with Klebsiella pneumoniae [12], in the data set on Acinetobacter baumannii [13] and in the data set on Escherichia coli [14] was Active. In addition, in data set [2], the MHC10 was above 160 µM. Also, the Retention_time in data set [5] worked out at 19.6 min.
Turning to Ac-KKLLKLLKAPLKLLK-NH2, the MIC is above 80 µM in the data set on Klebsiella pneumoniae [1], above 80 µM in the data set on Escherichia coli [3] and 20 µM in the data set with Acinetobacter baumannii [4]. Also, the result in the data set on Acinetobacter baumannii [6], with Escherichia coli [7], with Escherichia coli [8], in the data set on Acinetobacter baumannii [9], in the data set with Klebsiella pneumoniae [10] and in the data set with Klebsiella pneumoniae [11] was Active. The result in the data set with Klebsiella pneumoniae [12], in the data set with Acinetobacter baumannii [13] and with Escherichia coli [14] was Active. In addition, in [2], the MHC10 was above 160 µM. In addition, the Retention_time in data set [5] was found to be 19.6 min.
With Ac-KKLLKLLKKPAKLLK-NH2, the MIC with Klebsiella pneumoniae [1] was above 80 µM; in the data set on Escherichia coli [3], above 80 µM; in the data set on Acinetobacter baumannii [4], 80 µM. The result in the data set with Acinetobacter baumannii [6], with Escherichia coli [7], with Escherichia coli [8], in the data set with Acinetobacter baumannii [9], with Klebsiella pneumoniae [10] and in the data set with Klebsiella pneumoniae [11] was Active. Moreover, the result with Klebsiella pneumoniae [12], with Acinetobacter baumannii [13] and with Escherichia coli [14] was Active. Besides, in [2], the MHC10 was above 160 µM. Further, the Retention_time in [5] was found to be 17.1 min.
Consider Ac-KKLLKLLKKPLALLK-NH2, for which the MIC in the data set on Klebsiella pneumoniae [1] is above 80 µM; in the data set on Escherichia coli [3], above 80 µM; in the data set on Acinetobacter baumannii [4], 20 µM. Also, the outcome in the data set on Acinetobacter baumannii [6], in the data set on Escherichia coli [7], in the data set with Escherichia coli [8], in the data set on Acinetobacter baumannii [9], in the data set on Klebsiella pneumoniae [10] and with Klebsiella pneumoniae [11] was Active. Also, the outcome with Klebsiella pneumoniae [12], in the data set on Acinetobacter baumannii [13] and in the data set with Escherichia coli [14] was Active. In addition, the MHC10 in data set [2] was above 160 µM. Further, the Retention_time in [5] was determined as 19.6 min.
As to Ac-KKLLKLLKKPLKALK-NH2, the figures for the MIC in the data set with Klebsiella pneumoniae [1], with Escherichia coli [3] and in the data set with Acinetobacter baumannii [4] were above 80 µM, above 80 µM and 40 µM, respectively. For the same compound, the result in the data set on Acinetobacter baumannii [6], with Escherichia coli [7], in the data set with Escherichia coli [8], with Acinetobacter baumannii [9], in the data set with Klebsiella pneumoniae [10] and with Klebsiella pneumoniae [11] was Active. The result in the data set on Klebsiella pneumoniae [12], with Acinetobacter baumannii [13] and with Escherichia coli [14] was Active. The MHC10 in [2] is above 160 µM. Further, in data set [5], the Retention_time is 17.5 min.
Take Ac-KKLLKLLKKPLKLAK-NH2: the MIC in the data set on Klebsiella pneumoniae [1] is above 80 µM; in the data set on Escherichia coli [3], above 80 µM; in the data set with Acinetobacter baumannii [4], 80 µM. For the same compound, the outcome in the data set with Acinetobacter baumannii [6], with Escherichia coli [7], with Escherichia coli [8], in the data set on Acinetobacter baumannii [9], with Klebsiella pneumoniae [10] and in the data set with Klebsiella pneumoniae [11] was Active. The outcome with Klebsiella pneumoniae [12], in the data set with Acinetobacter baumannii [13] and in the data set with Escherichia coli [14] was Active. Moreover, the MHC10 in data set [2] was above 160 µM. In addition, in data set [5], the Retention_time is given as 17.1 min.
For Ac-KKLLKLLKKPLKLLA-NH2, the MIC in the data set on Klebsiella pneumoniae [1] is above 80 µM; in the data set on Escherichia coli [3], above 80 µM; in the data set on Acinetobacter baumannii [4] it was 2.5 µM. The outcome in the data set on Acinetobacter baumannii [6], in the data set with Escherichia coli [7], in the data set with Escherichia coli [8], in the data set with Acinetobacter baumannii [9], in the data set with Klebsiella pneumoniae [10] and in the data set with Klebsiella pneumoniae [11] was Active. The outcome in the data set on Klebsiella pneumoniae [12], with Acinetobacter baumannii [13] and with Escherichia coli [14] was Active. The MHC10 in [2] is above 160 µM. In [5], the Retention_time is reported as 18.9 min.
